Test results as given in US5089476A, “Glutamic acid derivatives” (Roussel Uclaf, priority 1987, dated 1992).

How the values were obtained:
Assay type in all cases: cell-based, human
[1] = test system: interleukin-1 (IL-1) production by monocytes; assay: Interleukin-1 (IL-1) test on monocyte culture supernatants (mouse thymocyte co-mitogenic bioassay); details: thymidine incorporation by C3H/HeJ mouse thymocytes with PHA
Method: (§1) The mononuclear cells of the circulating blood of normal donors were separated by the classical technique described by Boyum using a Ficoll gradient. After being washed, the mononuclear cells were incubated at 37° C. for 1 hour in the proportion of 5×10^6 monocytes (NSE^+ cells) per ml of culture medium, 5 ml per culture bottle. The culture medium used in this experiment was composed of RPMI 1640 to which antibiotics and HEPES buffer had been added. After one hour, the non-adherent cells were removed by washing the bottles with medium previously brought to 37 C, and the adherent cells, composed essentially of monocytes (>90%), were cultured again in the presence of different amounts of test products in a PBS medium (Dulbecco) without Ca^2+ or Mg^2+. Culturing was continued for 24 or 48 hours and the cell supernatants were then withdrawn, centrifuged, aliquoted and stored either at -80° C. or at -20° C. The culture supernatants were replaced in the bottles by the same amount of pyrogen-free distilled water to Lyse the cells. […]
This test was first described by Gery et al in 1972 [Gery et al, 1972 Potentiation of the T Lymphocyte response to mitogens. […] The results were expressed as the difference between the pulses per minute incorporated by the cultures in the presence of supernatants and the pulses per minute incorporated by the control cultures.

[2] = test system: tumor necrosis factor (TNF) production by monocytes; assay: Tumor Necrosis Factor (TNF) test on monocyte culture supernatants (toxicity on L-929 target cells); details: toxicity on L-929 cells with actinomycin D
Method: as §1, with “cells. The Lysate was recovered, aliquoted and also stored at -20° C.” for “cells.”
The technique was sensitized by adding actinomycin D to the test. […] After 24 hours of culturing, the number of unlysed viable cells was measured by staining the plates with crystal violet and measuring the optical density of different wells on a multiscan reader.

[3] = test system: monocytes; assay: Stimulation of monocytic cells with an immunostimulant; details: for stimulation of monocytes: adherent blood monocytes of normal donors, cultured 24 or 48 hours with test product; for synergy with interferon-γ: in the presence of interferon-γ 10^3 U/ml, a dose at which IFN-γ alone was inactive
Method: The mononuclear cells of the circulating blood of normal donors were separated by the classical technique described by Boyum using a Ficoll gradient. After being washed, the mononuclear cells were incubated at 37° C. for 1 hour in the proportion of 5×10^6 monocytes (NSE^+ cells) per ml of culture medium, 5 ml per culture bottle. The culture medium used in this experiment was composed of RPMI 1640 to which antibiotics and HEPES buffer had been added. After one hour, the non-adherent cells were removed by washing the bottles with medium previously brought to 37 C, and the adherent cells, composed essentially of monocytes (>90%), were cultured again in the presence of different amounts of test products in a PBS medium (Dulbecco) without Ca^2+ or Mg^2+. Culturing was continued for 24 or 48 hours and the cell supernatants were then withdrawn, centrifuged, aliquoted and stored either at -80° C. or at -20° C. The culture supernatants were replaced in the bottles by the same amount of pyrogen-free distilled water to Lyse the cells. The Lysate was recovered, aliquoted and also stored at -20° C.

Molecule	IL-1 production by monocytes [1]	TNF production by monocytes [2]	stimulation of monocytes [3]	synergy with interferon-γ [3]	activity of IFN-γ alone ([3]; interferon-γ 10^3 U/ml alone)
C=C(CC(N)C(=O)O)CC(NC(=O)CC[C@@H](N)C(=O)O)C(=O)O (stereo partly drawn) [Example 1, 2-amino-6-(γ-D-glutamylamino)-4-methylene-heptanedioic acid]	stimulated	stimulated	stimulated monocytes	synergy	–
C=C(CC(NC(=O)CC[C@@H](N)C(=O)O)C(=O)O)CC(NC(=O)[C@H](C)N)C(=O)O (stereo partly drawn) [Example 2, 2-(L-Alanylamino)-6-(γ-D-glutamylamino)-4-methyleneheptanedioic acid]	stimulated	stimulated	stimulated monocytes	synergy	–
IFN-γ: interferon-γ (10^3 U/ml) added to monocyte cultures to test synergy (protein, UniProt P01579 24-161, looked up) Interferon gamma: QDPYVKEAENLKKYFNAGHSDVADNGTLFLGILKNWKEESDRKIMQSQIVSFYFKLFKNFKDDQSIQKSVETIKEDMNVKFFNSNKKKRDDFEKLTNYSVTDLNVQRKAIHELIQVMAELSPAAKTGKRKRSQMLFRG	–	–	–	–	inactive
